Laboratory results reported in patent publication US20250255829A1, “Multifunctional Nanoparticles and Uses in Managing Cancer and Cardiovascular Diseases” (Emory University, priority 2022, published 2025).

Experiments:
[1] = test system: s.c. mouse colon tumors (MC38); assay: Tumor growth in dual colon cancer and atherosclerosis mouse model; format: in vivo, Apoe−/− mice; settings: dual disease model
Description: Apoe^−/− mice on a high fat diet carrying s.c. mouse colon tumors (a dual disease model) received five i.v. treatments, once every three days, of 10 mg/kg of avasimibe or equivalent PD1Y-HANP/avasimibe, 10 mg/kg of PD1Y peptide equivalent of PD1Y-HANP or PD1Y. Residual tumors were surgically resected 6 days by surgery after the last therapy. Tumors were weighted.
Apoe−/−mice bearing s.c. MC38 tumors received i.v. treatments of 5 mg/kg of Avasimibe, 5 mg/kg of PD1Y peptide, or […] of SN38 equivalent dose of free drugs or nanoparticle drugs.
MC38 tumor specific IgG antibodies were detected in the mouse serum following PD1Y-HANP/Avasimibe treatment. […]
Apoe^−/− (Apo E gene knock-out) mouse is a commonly used mouse model for atherosclerosis. […] Histological analysis of H&E stained tissue sections using NIR fluorescence microscopy (Keyence) confirmed HANP signals in the plaques. […]
In order to enhance the therapeutic effect a combination of PD-L1 targeted delivery of HANP/Avasimibe was tested with uPAR targeted delivery of SN38 (7-Ethyl-10-hydroxycamptothecin), which is an active metabolite of irinotecan that is commonly used for the treatment of colon cancer. […] Significant reductions of the volumes of atherosclerotic plaques in all treatment groups were detected.

[2] = Targeted delivery by NIR optical imaging and NIR fluorescence microscopy; format: in vivo, Apoe−/− mice; settings: systemic (i.v.) delivery, 48 hrs
Description: Apoe^−/− (Apo E gene knock-out) mouse is a commonly used mouse model for atherosclerosis. […] Apoe^−/− mice developed s.c. tumors within 2-3 weeks and extensive atherosclerosis were found in the aortas, especially in the aorta arching. Targeted delivery of PD1Y-HANPs into tumors and atherosclerotic plaques is mediated by targeting PD-L1 (PD1Y) and CD44 (HANP) expressed in both tissues. To determine efficiency of targeted delivery, NIR 830 dye labeled-PD1Y-HANPs were injected i.v. into Apoe^−/− mice bearing mouse colon tumors. […] Histological analysis of H&E stained tissue sections using NIR fluorescence microscopy (Keyence) confirmed HANP signals in the plaques. PD1Y-HANPs were found as clusters in the stromal and tumor areas, with a higher level in necrotic tumor regions.
(§1) A uPAR targeted stroma-penetrating ligand (ATFmmp14) was developed containing the amino terminal fragment of uPA fused with the catalytic domain of MMP14. […] ATFmmp14 targets to tumor stromal fibroblasts and macrophages and MMP14 digests extracellular matrixes. […] Without PD1Y or ATFmmp14 conjugation, lower levels of HANP/Avasimibe were present in tumors and atherosclerotic plaques. Thus, uPAR targeted ATF or ATFmmp14 conjugated PD1Y-HANP/Avasimibe enhances delivery efficiency in both plaques and tumors in dual disease mouse model or PDX model.

[3] = Intratumoral delivery in colon PDX tumors; format: in vivo; settings: colon PDX tumors in NSG mice
Excerpt: as §1

[4] = test system: MC38 mouse colon cancer cells; assay: Cell proliferation assay; format: cell-based; settings: MC-38, read-out: IC50, inhibition of tumor cell proliferation
Excerpt: Hydrophobic 5β-cholanic acid was conjugated to HA (HACA) to promote self-assembly and assist in loading of hydrophobic drug molecule avasimibe (Ava). HANP/Ava is produced by self-assembling of HACA and avasimibe using a high-pressure homogenizer. Amount of encapsulated avasimibe could reach to 20% (w/w) in HANP/Ava. PD1Y-HANP/Ava was produced by conjugating chemically synthesized PD1Y peptides, mediated by cysteine of PD1Y and maleimide of a short-PEG (12×) linker (FIG. 1B). A ratio of PD1Y to HANP at 17:1 was used. If a high concentration of PD1Y peptides will be needed for improvement of immune checkpoint inhibition, the amount of PD1Y peptides could be further increased up to 200 peptides per HANP.

[5] = test system: atherosclerotic plaques; assay: Atherosclerotic plaque quantification from H&E stained aorta sections; format: in vivo, Apoe−/− mice; settings: for volumes of atherosclerotic plaques: 5 mg/kg study
Description: Apoe−/−mice bearing dual diseases received the treatment. After surgical resection of the primary tumors, tumor recurrence and mouse survival were monitored. Mice with tumor recurrence and reached the endpoint were sacrificed. Aorta tissues of the mice were collected at the time point. Serial frozen tissue sections were cut throughout the tissue blocks and stained with H&E. Size of plaques in all arteries of each of the H&E stained tissue sections were measured and total size of the plaques from eight tissue sections of each mouse was compared with the mean of the total plaque area of the no treatment control (100%). For PD1Y-HANP/Ava group that sacrificed at 120 days, an additional no treatment group that was time equivalent was used as a control for the progression of atherosclerosis.
Apoe−/−mice bearing subcutaneous mouse colon tumors were treated with different reagents every 3-4 days for three treatments. Three days following the last treatment, all mice were sacrificed, and aorta arteries were collected. Plaque volumes were quantified from serial H&E tissue sections. During 12 days of treatment, PD1Y-HANP/Avasimibe treated mice had 56% reduction of the total plaque volume in the dual disease mouse model.
Following treatments and by the end of the survival study, the aorta tissues were collected.
In order to enhance the therapeutic effect a combination of PD-L1 targeted delivery of HANP/Avasimibe was tested with uPAR targeted delivery of SN38 (7-Ethyl-10-hydroxycamptothecin), which is an active metabolite of irinotecan that is commonly used for the treatment of colon cancer. […] The effect of ATFmmp14-HANP/SN38 alone or in combination with PD1Y-HANP/Avasimibe at 5 mg/kg of Avasimibe and PD1Y peptide dose/injection was examined in a dual mouse colon cancer and atherosclerosis model. […] Significant reductions of the volumes of atherosclerotic plaques in all treatment groups were detected.

NWNRLSPSNQTEKQAAPHHHHCGAISLHPKAKIEE [Unconjugated PD1Y peptide]
therapeutic efficacy [1]: did not show therapeutic efficacy

ATFmmp14: amino terminal fragment of uPA fused with the catalytic domain of MMP14; uPAR targeted stroma-penetrating ligand
delivery into tumors and atherosclerotic plaques [2]: high delivery efficiency | intratumoral delivery [3]: high level of intratumoral delivery

CC(C)c1cc(C(C)C)c(CC(=O)NS(=O)(=O)Oc2c(C(C)C)cccc2C(C)C)c(C(C)C)c1 [avasimibe]
IC50 [4]: 28 µM | volumes of atherosclerotic plaques [5]: decreased | amount of the plaques (in words) ([5]; following treatments and by the end of the survival study): significantly decreased

CCc1c2c(nc3ccc(O)cc13)-c1cc3c(c(=O)n1C2)COC(=O)[C@]3(O)CC [SN38, 7-Ethyl-10-hydroxycamptothecin]
volumes of atherosclerotic plaques [5]: decreased
